Reference: article PMC10302047, “Structure–Activity Relationship Studies of Indolglyoxyl-Polyamine Conjugates as Antimicrobials and Antibiotic Potentiators” (Pharmaceuticals, 2023)
In brackets after ≈: the same amount, converted by molar mass.

How the values were obtained:
P. aeruginosa ATCC 27853 [1] = experiment: Antibiotic potentiation (MIC of antibiotics in the presence of synergizing compounds), P. aeruginosa; assay type: cell-based, Pseudomonas aeruginosa; conditions: concentration required to restore doxycycline activity at 2 µg/mL (4.5 µM) against P. aeruginosa ATCC 27853
S. aureus ATCC 25923 = experiment: Antimicrobial susceptibility (MIC), S. aureus; assay type: cell-based, Staphylococcus aureus; conditions: Staphylococcus aureus, ATCC25923; S. aureus ATCC 25923; mean (n = 3)
Experimental: (§1) The susceptibility of bacterial strains S. aureus (ATCC 25923), E. coli (ATCC 25922) and P. aeruginosa (ATCC 27853) to antibiotics and compounds was determined according to previously reported protocols. Additional antimicrobial evaluation against MRSA (ATCC 43300) and C. albicans (ATCC 90028) was undertaken at the Community for Open Antimicrobial Drug Discovery at The University of Queensland (Australia) according to their standard protocols as reported previously.

P. aeruginosa ATCC 27853 [2] = experiment: Antimicrobial susceptibility (MIC), P. aeruginosa; assay type: cell-based; conditions: Pseudomonas aeruginosa, ATCC27853, mean (n = 3), read-out: MIC P. a
Experimental: as §1

human red blood cells = experiment: Hemolytic assay; assay type: cell-based; conditions: mean (n = 2)
Experimental: Hemolysis assays were conducted according to previously reported protocols.

C. albicans ATCC 90028 = experiment: Antifungal susceptibility (MIC), C. albicans; assay type: cell-based; conditions: Candida albicans, ATCC90028, mean (n = 2)
Experimental: as §1

[3] = Cytotoxicity assay HEK293; assay type: cell-based, human; conditions: human, HEK293 cells, mean (n = 2), read-out: Cyto. IC50 (concentration of compound at 50% cytotoxicity)
Experimental: Cytotoxicity assays were conducted according to previously reported protocols.

MRSA ATCC 43300 = experiment: Antimicrobial susceptibility (MIC), MRSA; assay type: cell-based; conditions: Staphylococcus aureus; MRSA ATCC 43300; mean (n = 2); read-out: MIC MRSA
Experimental: as §1

E. coli ATCC 25922 = experiment: Antimicrobial susceptibility (MIC), E. coli; assay type: cell-based; conditions: Escherichia coli, ATCC25922, mean (n = 3)
Experimental: as §1

MIC (S. aureus ATCC 25923) [µM]	MIC (P. aeruginosa ATCC 27853 [2]) [µM]	MIC (C. albicans ATCC 90028) [µM]	MIC (MRSA ATCC 43300) [µM]	MIC (E. coli ATCC 25922) [µM]	Structure (SMILES)	Conc (µM) for Potentiation of doxycycline (P. aeruginosa ATCC 27853 [1]) [µM]	Hem. HC10 (concentration of compound at 10% hemolytic activity) (human red blood cells) [µM]	IC50 [3] [µM]
1.56	50	16.7	4.17	6.25	O=C(NCCCNCCCCCCNCCCNC(=O)C(=O)c1c[nH]c2ccc(Br)cc12)C(=O)c1c[nH]c2ccc(Br)cc12.O=C(O)C(F)(F)F.O=C(O)C(F)(F)F [Compound 18a, N^1,N^6-Bis(3-(2-(5-bromo-1H-indol-3-yl)-2-oxoacetamido)propyl)hexane-1,6-diaminium 2,2,2-trifluoroacetate]	6.5	>33	8.9
6.4	51	16	4.1	51	O=C(NCCCNCCCCCCCNCCCNC(=O)C(=O)c1c[nH]c2ccc(Br)cc12)C(=O)c1c[nH]c2ccc(Br)cc12.O=C(O)C(F)(F)F.O=C(O)C(F)(F)F [Compound 18b, N^1,N^7-Bis(3-(2-(5-bromo-1H-indol-3-yl)-2-oxoacetamido)propyl)heptane-1,7-diaminium 2,2,2-trifluoroacetate]	12.9	>33	13
25	> 200	32	8.1	> 200	O=C(NCCCNCCCCCCCCNCCCNC(=O)C(=O)c1c[nH]c2ccc(Br)cc12)C(=O)c1c[nH]c2ccc(Br)cc12.O=C(O)C(F)(F)F.O=C(O)C(F)(F)F [Compound 18c, N^1,N^8-Bis(3-(2-(5-bromo-1H-indol-3-yl)-2-oxoacetamido)propyl)octane-1,8-diaminium 2,2,2-trifluoroacetate]	>200	>32	18
6.16	200	32	7.88	98	O=C(NCCCNCCCCCCCCCCNCCCNC(=O)C(=O)c1c[nH]c2ccc(Br)cc12)C(=O)c1c[nH]c2ccc(Br)cc12.O=C(O)C(F)(F)F.O=C(O)C(F)(F)F [Compound 18d, N^1,N^10-Bis(3-(2-(5-bromo-1H-indol-3-yl)-2-oxoacetamido)propyl)decane-1,10-diaminium 2,2,2-trifluoroacetate]	25	>32	16
5.99	96	31	3.84	24	O=C(NCCCNCCCCCCCCCCCCNCCCNC(=O)C(=O)c1c[nH]c2ccc(Br)cc12)C(=O)c1c[nH]c2ccc(Br)cc12.O=C(O)C(F)(F)F.O=C(O)C(F)(F)F [Compound 18e, N^1,N^12-Bis(3-(2-(5-bromo-1H-indol-3-yl)-2-oxoacetamido)propyl)dodecane-1,12-diaminium 2,2,2-trifluoroacetate]	24	20	8.6
57	> 200	37	37	> 200	COc1ccc2[nH]cc(C(=O)C(=O)NCCCNCCCCCCCNCCCNC(=O)C(=O)c3c[nH]c4ccc(OC)cc34)c2c1.O=C(O)C(F)(F)F.O=C(O)C(F)(F)F [Compound 19b, N^1,N^7-Bis(3-(2-(5-methoxy-1H-indol-3-yl)-2-oxoacetamido)propyl)heptane-1,7-diaminium 2,2,2-trifluoroacetate]	114	>37	> 37
> 100	> 100	36 (≈ 23.8 µg/mL)	> 36	> 100	COc1ccc2[nH]cc(C(=O)C(=O)NCCCNCCCCCCCCNCCCNC(=O)C(=O)c3c[nH]c4ccc(OC)cc34)c2c1 [Compound 19c]	25	26	18
12.5	> 200	35	17.4	50	COc1ccc2[nH]cc(C(=O)C(=O)NCCCNCCCCCCCCCCNCCCNC(=O)C(=O)c3c[nH]c4ccc(OC)cc34)c2c1.O=C(O)C(F)(F)F.O=C(O)C(F)(F)F [Compound 19d, N^1,N^10-Bis(3-(2-(5-methoxy-1H-indol-3-yl)-2-oxoacetamido)propyl)decane-1,10-diaminium 2,2,2-trifluoroacetate]	>200	>35	6.8
12.5 (≈ 8.96 µg/mL)	> 200	34 (≈ 24.4 µg/mL)	34 (≈ 24.4 µg/mL)	100 (≈ 71.7 µg/mL)	COc1ccc2[nH]cc(C(=O)C(=O)NCCCNCCCCCCCCCCCCNCCCNC(=O)C(=O)c3c[nH]c4ccc(OC)cc34)c2c1 [Compound 19e]	>200	>34	8.6
7.3	> 200	38	18.8	> 200	O=C(NCCCNCCCCCCCNCCCNC(=O)C(=O)c1c[nH]c2c(F)cccc12)C(=O)c1c[nH]c2c(F)cccc12.O=C(O)C(F)(F)F.O=C(O)C(F)(F)F [Compound 21b, N^1,N^7-Bis(3-(2-(7-fluoro-1H-indol-3-yl)-2-oxoacetamido)propyl)heptane-1,7-diaminium 2,2,2-trifluoroacetate]	7.3	>38	11
29	> 200	> 37	18.5	> 200	O=C(NCCCNCCCCCCCCNCCCNC(=O)C(=O)c1c[nH]c2c(F)cccc12)C(=O)c1c[nH]c2c(F)cccc12.O=C(O)C(F)(F)F.O=C(O)C(F)(F)F [Compound 21c, N^1,N^8-Bis(3-(2-(7-fluoro-1H-indol-3-yl)-2-oxoacetamido)propyl)octane-1,8-diaminium 2,2,2-trifluoroacetate]	58	>37	9.2
3.12	> 200	36	4.48	6.25	O=C(NCCCNCCCCCCCCCCNCCCNC(=O)C(=O)c1c[nH]c2c(F)cccc12)C(=O)c1c[nH]c2c(F)cccc12.O=C(O)C(F)(F)F.O=C(O)C(F)(F)F [Compound 21d, N^1,N^10-Bis(3-(2-(7-fluoro-1H-indol-3-yl)-2-oxoacetamido)propyl)decane-1,10-diaminium 2,2,2-trifluoroacetate]	100	>36	4.7
27.2	> 220	35	4.34	> 220	O=C(NCCCNCCCCCCCCCCCCNCCCNC(=O)C(=O)c1c[nH]c2c(F)cccc12)C(=O)c1c[nH]c2c(F)cccc12.O=C(O)C(F)(F)F.O=C(O)C(F)(F)F [Compound 21e, N^1,N^12-Bis(3-(2-(7-fluoro-1H-indol-3-yl)-2-oxoacetamido)propyl)dodecane-1,12-diaminium 2,2,2-trifluoroacetate]	>200	>35	6.4
50	800	> 37	> 37	400	COc1cccc2c(C(=O)C(=O)NCCCNCCCCCCNCCCNC(=O)C(=O)c3c[nH]c4c(OC)cccc34)c[nH]c12.O=C(O)C(F)(F)F.O=C(O)C(F)(F)F [Compound 22a, N^1,N^6-Bis(3-(2-(7-methoxy-1H-indol-3-yl)-2-oxoacetamido)propyl)hexane-1,6-diaminium 2,2,2-trifluoroacetate]	100	>37	> 37
25	800	> 37	> 37	200	COc1cccc2c(C(=O)C(=O)NCCCNCCCCCCCNCCCNC(=O)C(=O)c3c[nH]c4c(OC)cccc34)c[nH]c12.O=C(O)C(F)(F)F.O=C(O)C(F)(F)F [Compound 22b, N^1,N^7-Bis(3-(2-(7-methoxy-1H-indol-3-yl)-2-oxoacetamido)propyl)heptane-1,7-diaminium 2,2,2-trifluoroacetate]	100	>37	8.9
